Source: patent US20250129430A1, “HIGH ATP-AFFINITY PROTEIN AS THERAPEUTIC TARGET FOR INTRACTABLE CANCER MOLECULAR SUBTYPES AND INHIBITOR THEREOF” (VeraVerse Co., Ltd., priority 2021, published 2025)

How the values were obtained:
Experiment in all cases: Cell viability drug screen, 12-point dose-response AUC
Type in all cases: cell-based, human
FU97 = system: FU97; set-up: Average Area Under the Viability Curve (AUC), AUC norm value: scale not given here; settings: FU97 cells, 72 hours
In short: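 Trapezoidal AUC of a 12-point, DMSO-normalized dose-response curve. Luminescent viability was measured after 72 h of exposure at 37° C to half-log serial dilutions (0.5% DMSO control), dosed 24 h after plating FU97 cells at 5×10^3 per well.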

SNU668 = settings: 72 hours; for Average Area Under the Viability Curve (AUC), AUC norm value: SNU668 cells (SEM subtype)
In short: (§1)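 Dose-response AUC reflects 72 h drug exposure of gastric cancer cells in a 12-point, half-log format, with viability read by luminescence and normalized to DMSO (0.5%).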

NCC24 = NCC24 cells, 72 hours
In short: as §1

SNU601 = SNU601 cells, 72 hours
In short: as §1

AGS = settings: 72 hours; for Average Area Under the Viability Curve (AUC), AUC norm value: AGS cells (non-SEM subtype)
In short: (§2)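 Viability: luminescence (Glo kit, 15 min RT), normalized to 0.5% DMSO vehicle. Dosing: half-log, 12 concentrations, 72 h. Cells: 5×10^3/well, treated 24 h after plating. Value: trapezoidal AUC, mean of repeats.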

SNU638 = SNU638 cells, 72 hours
In short: as §1

NCC20 = NCC20 cells, 72 hours
In short: as §1

NCC59 = NCC59 cells, 72 hours
In short: as §1

NCI_N87 = NCI_N87 cells, 72 hours
In short: as §1

YCC3 = YCC3 cells, 72 hours
In short: as §1

SNU1750 = settings: 72 hours; for Average Area Under the Viability Curve (AUC), AUC norm value: SNU1750 cells (SEM subtype)
In short: as §1

MKN1 = MKN1 cells, 72 hours
In short: as §1

SNU216 = settings: 72 hours; for Average Area Under the Viability Curve (AUC), AUC norm value: SNU216 cells (non-SEM subtype)
In short: as §2

MKN74 = MKN74 cells, 72 hours
In short: as §2

YCC2 = YCC2 cells, 72 hours
In short: as §1

Hs746T = settings: 72 hours; for Average Area Under the Viability Curve (AUC), AUC norm value: Hs746T cells (SEM subtype)
In short: as §1

SNU484 = settings: 72 hours; for Average Area Under the Viability Curve (AUC), AUC norm value: SNU484 cells (SEM subtype)
In short: as §1

NCC19 = NCC19 cells, 72 hours
In short: as §1

SNU1 = SNU1 cells, 72 hours
In short: as §1

KATO3 = KATO3 cells, 72 hours
In short: as §1

SNU16 = SNU16 cells, 72 hours
In short: as §1

YCC11 = settings: 72 hours; for Average Area Under the Viability Curve (AUC), AUC norm value: YCC11 cells (SEM subtype)
In short: as §1

MKN28 = MKN28 cells, 72 hours
In short: as §1

OCUM1 = OCUM1 cells, 72 hours
In short: as §1

SNU1967 = SNU1967 cells, 72 hours
In short: as §1

SK4 = settings: 72 hours; for Average Area Under the Viability Curve (AUC), AUC norm value: SK4 cells (SEM subtype)
In short: as §1

SNU620 = SNU620 cells, 72 hours
In short: as §1

MKN45 = settings: 72 hours; for Average Area Under the Viability Curve (AUC), AUC norm value: MKN45 cells (non-SEM subtype)
In short: as §2

SNU719 = SNU719 cells, 72 hours
In short: as §2

Q: `C/C(=C\c1csc(C)n1)[C@@H]1C[C@@H]2O[C@@H]2CCC[C@H](C)[C@H](O)[C@@H](C)C(=O)C(C)(C)[C@@H](O)CC(=O)O1` [Epothilone A] was tested. Which “area under the viability curve (AUC), normalized” value (“area … normalized” for short) (FU97; 12-point dose-response) did it give?
A: Its value is 0.9454.

Q: And the “area … normalized” value (SNU668; SNU668 cells, 12-point dose-response)?
A: The value was −0.2909.

Q: And the “area … normalized” value (NCC24; 12-point dose-response)?
A: The value was −1.8431.

Q: What about the “area … normalized” value (SNU601; 12-point dose-response) of the same compound?
A: The value was −0.2006.

Q: And the “area … normalized” value (AGS; AGS cells, 12-point dose-response)?
A: Its value is −1.655.

Q: What about the “area … normalized” value (SNU638; 12-point dose-response) of the same compound?
A: The value was 0.3118.

Q: What about the “area … normalized” value (NCC20; 12-point dose-response) of the same compound?
A: The value was −0.5459.

Q: And the “area … normalized” value (NCC59; 12-point dose-response)?
A: The value was 3.583.

Q: And the “area … normalized” value (NCI_N87; 12-point dose-response)?
A: Its value is −1.51.

Q: And the “area … normalized” value (YCC3; 12-point dose-response)?
A: The value was 2.8742.

Q: And the “area … normalized” value (SNU1750; SNU1750 cells, 12-point dose-response)?
A: Its value is 1.039.

Q: What about the “area … normalized” value (MKN1; 12-point dose-response) of the same compound?
A: Its value is −1.14.

Q: What about the “area … normalized” value (SNU216; SNU216 cells, 12-point dose-response) of the same compound?
A: Its value is 2.403.

Q: What about the “area … normalized” value (MKN74; 12-point dose-response) of the same compound?
A: Its value is 0.2913.

Q: And the “area … normalized” value (YCC2; 12-point dose-response)?
A: Its value is 0.1784.

Q: What about the “area … normalized” value (Hs746T; Hs746T cells, 12-point dose-response) of the same compound?
A: Its value is 1.217.

Q: And the “area … normalized” value (SNU484; SNU484 cells, 12-point dose-response)?
A: The value was −0.4364.

Q: What about the “area … normalized” value (NCC19; 12-point dose-response) of the same compound?
A: Its value is 0.

Q: And the “area … normalized” value (SNU1; 12-point dose-response)?
A: Its value is −1.75.

Q: What about the “area … normalized” value (KATO3; 12-point dose-response) of the same compound?
A: The value was 4.761.

Q: And the “area … normalized” value (SNU16; 12-point dose-response)?
A: Its value is −1.12.

Q: What about the “area … normalized” value (YCC11; YCC11 cells, 12-point dose-response) of the same compound?
A: The value was −1.2702.

Q: And the “area … normalized” value (MKN28; 12-point dose-response)?
A: The value was −1.4393.

Q: And the “area … normalized” value (OCUM1; 12-point dose-response)?
A: The value was 1.699.

Q: What about the “area … normalized” value (SNU1967; 12-point dose-response) of the same compound?
A: Its value is 0.6477.

Q: And the “area … normalized” value (SK4; SK4 cells, 12-point dose-response)?
A: The value was −0.9541.

Q: And the “area … normalized” value (SNU620; 12-point dose-response)?
A: Its value is −2.268.

Q: And the “area … normalized” value (MKN45; MKN45 cells, 12-point dose-response)?
A: Its value is 0.6604.

Q: And the “area … normalized” value (SNU719; 12-point dose-response)?
A: The value was 4.484.

Q: For `Nc1nc(F)nc2c1ncn2[C@@H]1O[C@H](COP(=O)(O)O)[C@@H](O)[C@@H]1O` [Fludarabine Phosphate (Fludara), Fludarabine Phosphate], which “Average Area Under the Viability Curve (AUC), AUC norm value” (“Average Area Under the Viability Curve” below) (FU97) is on record?
A: Its value is 2.928.

Q: What about the “Average Area Under the Viability Curve” value (SNU668) of the same compound?
A: Its value is −1.511.

Q: And the “Average Area Under the Viability Curve” value (NCC24)?
A: Its value is 1.037.

Q: And the “Average Area Under the Viability Curve” value (SNU601)?
A: The value was −0.5439.

Q: What about the “Average Area Under the Viability Curve” value (AGS) of the same compound?
A: Its value is −2.783.

Q: And the “Average Area Under the Viability Curve” value (SNU638)?
A: The value was 0.5006.

Q: What about the “Average Area Under the Viability Curve” value (NCC20) of the same compound?
A: The value was −2.507.

Q: What about the “Average Area Under the Viability Curve” value (NCC59) of the same compound?
A: The value was 1.479.

Q: What about the “Average Area Under the Viability Curve” value (NCI_N87) of the same compound?
A: The value was −0.06169.

Q: And the “Average Area Under the Viability Curve” value (YCC3)?
A: The value was 0.

Q: And the “Average Area Under the Viability Curve” value (SNU1750)?
A: Its value is 1.972.

Q: And the “Average Area Under the Viability Curve” value (MKN1)?
A: Its value is 0.9748.

Q: What about the “Average Area Under the Viability Curve” value (SNU216) of the same compound?
A: Its value is 1.771.

Q: And the “Average Area Under the Viability Curve” value (MKN74)?
A: Its value is −0.1731.

Q: And the “Average Area Under the Viability Curve” value (YCC2)?
A: The value was −0.7765.

Q: What about the “Average Area Under the Viability Curve” value (Hs746T) of the same compound?
A: Its value is 1.97.

Q: And the “Average Area Under the Viability Curve” value (SNU484)?
A: Its value is 1.309.

Q: What about the “Average Area Under the Viability Curve” value (NCC19) of the same compound?
A: Its value is 2.411.

Q: What about the “Average Area Under the Viability Curve” value (SNU1) of the same compound?
A: The value was −0.7644.

Q: And the “Average Area Under the Viability Curve” value (KATO3)?
A: Its value is 1.165.

Q: And the “Average Area Under the Viability Curve” value (SNU16)?
A: Its value is −0.44.

Q: And the “Average Area Under the Viability Curve” value (YCC11)?
A: The value was −0.6417.

Q: What about the “Average Area Under the Viability Curve” value (MKN28) of the same compound?
A: The value was 0.00328.

Q: And the “Average Area Under the Viability Curve” value (OCUM1)?
A: The value was −0.3967.

Q: And the “Average Area Under the Viability Curve” value (SNU1967)?
A: Its value is 2.186.

Q: What about the “Average Area Under the Viability Curve” value (SK4) of the same compound?
A: The value was −1.653.

Q: What about the “Average Area Under the Viability Curve” value (SNU620) of the same compound?
A: Its value is −2.289.

Q: And the “Average Area Under the Viability Curve” value (MKN45)?
A: Its value is −1.029.

Q: And the “Average Area Under the Viability Curve” value (SNU719)?
A: Its value is 2.046.

Q: For `Nc1ccn([C@@H]2O[C@H](CO)[C@@H](O)C2(F)F)c(=O)n1` [Gemcitabine (Gemzar), Gemcitabine], which “Average Area Under the Viability Curve” value (FU97) is on record?
A: Its value is 1.888.

Q: What about the “Average Area Under the Viability Curve” value (SNU668) of the same compound?
A: The value was −1.312.

Q: What about the “Average Area Under the Viability Curve” value (NCC24) of the same compound?
A: Its value is −1.1.

Q: What about the “Average Area Under the Viability Curve” value (SNU601) of the same compound?
A: Its value is 0.2471.

Q: What about the “Average Area Under the Viability Curve” value (AGS) of the same compound?
A: Its value is −2.364.

Q: What about the “Average Area Under the Viability Curve” value (SNU638) of the same compound?
A: Its value is −2.404.

Q: And the “Average Area Under the Viability Curve” value (NCC20)?
A: The value was −0.9089.

Q: And the “Average Area Under the Viability Curve” value (NCC59)?
A: The value was 3.024.

Q: What about the “Average Area Under the Viability Curve” value (NCI_N87) of the same compound?
A: The value was 1.33.

Q: And the “Average Area Under the Viability Curve” value (YCC3)?
A: The value was 0.1853.

Q: And the “Average Area Under the Viability Curve” value (SNU1750)?
A: The value was 0.

Q: And the “Average Area Under the Viability Curve” value (MKN1)?
A: The value was −0.9169.

Q: What about the “Average Area Under the Viability Curve” value (SNU216) of the same compound?
A: The value was 1.837.

Q: What about the “Average Area Under the Viability Curve” value (MKN74) of the same compound?
A: The value was −1.402.

Q: What about the “Average Area Under the Viability Curve” value (YCC2) of the same compound?
A: Its value is 0.1111.

Q: What about the “Average Area Under the Viability Curve” value (Hs746T) of the same compound?
A: The value was 1.71.

Q: And the “Average Area Under the Viability Curve” value (SNU484)?
A: Its value is −0.2757.

Q: And the “Average Area Under the Viability Curve” value (NCC19)?
A: Its value is 1.697.

Q: And the “Average Area Under the Viability Curve” value (SNU1)?
A: Its value is −0.3367.

Q: And the “Average Area Under the Viability Curve” value (KATO3)?
A: The value was 4.1466.

Q: And the “Average Area Under the Viability Curve” value (SNU16)?
A: The value was 0.514.

Q: And the “Average Area Under the Viability Curve” value (YCC11)?
A: Its value is −1.649.

Q: What about the “Average Area Under the Viability Curve” value (MKN28) of the same compound?
A: Its value is 1.089.

Q: And the “Average Area Under the Viability Curve” value (OCUM1)?
A: Its value is −1.402.

Q: And the “Average Area Under the Viability Curve” value (SNU1967)?
A: The value was −4.705.

Q: And the “Average Area Under the Viability Curve” value (SK4)?
A: The value was −0.8764.

Q: What about the “Average Area Under the Viability Curve” value (SNU620) of the same compound?
A: The value was −1.64.

Q: What about the “Average Area Under the Viability Curve” value (MKN45) of the same compound?
A: Its value is 1.053.

Q: And the “Average Area Under the Viability Curve” value (SNU719)?
A: Its value is 3.628.
